This note sets out measurements from patent US7074789B2, “Kinase inhibitors” (Amgen Inc., priority 1999, dated 2006).

What all share (type): biochemical
One test has as its target T1, Hck-1 (Homo sapiens, UniProt P08631).
T1 construct: Kinases are expressed as either kinase domains or full length constructs; made in house
Kind of test: Kinase inhibition assay (33P transfer), Hck. To be noted: Table 6, Hck-1 kinase inhibition class.

The target in a further test is T2, Fyn (Homo sapiens, UniProt P06241).
T2 construct: Kinases are expressed as either kinase domains or full length constructs; made in house
T2 sequence (P06241 whole entry, species assumed, the tested form may be a part): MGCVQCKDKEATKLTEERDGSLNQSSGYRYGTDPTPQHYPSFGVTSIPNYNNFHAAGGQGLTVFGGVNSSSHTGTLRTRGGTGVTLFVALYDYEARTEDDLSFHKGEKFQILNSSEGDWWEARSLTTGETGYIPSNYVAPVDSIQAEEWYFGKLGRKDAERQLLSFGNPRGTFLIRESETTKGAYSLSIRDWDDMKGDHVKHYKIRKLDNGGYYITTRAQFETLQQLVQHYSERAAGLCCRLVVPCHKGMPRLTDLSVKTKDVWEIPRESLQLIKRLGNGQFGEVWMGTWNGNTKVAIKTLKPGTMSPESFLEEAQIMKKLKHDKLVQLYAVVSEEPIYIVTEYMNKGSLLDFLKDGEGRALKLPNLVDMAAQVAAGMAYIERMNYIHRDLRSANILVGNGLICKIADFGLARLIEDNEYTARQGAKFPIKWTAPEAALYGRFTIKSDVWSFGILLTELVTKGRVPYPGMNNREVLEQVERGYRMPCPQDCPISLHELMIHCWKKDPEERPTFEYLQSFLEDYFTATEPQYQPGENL
In words: Kinase inhibition assay (33P transfer), Fyn. To be noted: for IC50: read-out: Fyn-1. The procedure, abridged: (§1)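 Steps: coat wells with poly(Glu,Tyr) 4:1 or poly(Arg,Ser) 3:1; add purified kinase, [33P]ATP and inhibitor; incubate; wash with 0.5% phosphoric acid; add liquid scintillant; count. IC50 corresponds to half-maximal reduction of bound 33P.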

In the next test the target is T3, Flt-1 (Homo sapiens, UniProt P17948).
T3 construct: Kinases are expressed as either kinase domains or full length constructs; made in house
T3 sequence (P17948 27-1338, species assumed): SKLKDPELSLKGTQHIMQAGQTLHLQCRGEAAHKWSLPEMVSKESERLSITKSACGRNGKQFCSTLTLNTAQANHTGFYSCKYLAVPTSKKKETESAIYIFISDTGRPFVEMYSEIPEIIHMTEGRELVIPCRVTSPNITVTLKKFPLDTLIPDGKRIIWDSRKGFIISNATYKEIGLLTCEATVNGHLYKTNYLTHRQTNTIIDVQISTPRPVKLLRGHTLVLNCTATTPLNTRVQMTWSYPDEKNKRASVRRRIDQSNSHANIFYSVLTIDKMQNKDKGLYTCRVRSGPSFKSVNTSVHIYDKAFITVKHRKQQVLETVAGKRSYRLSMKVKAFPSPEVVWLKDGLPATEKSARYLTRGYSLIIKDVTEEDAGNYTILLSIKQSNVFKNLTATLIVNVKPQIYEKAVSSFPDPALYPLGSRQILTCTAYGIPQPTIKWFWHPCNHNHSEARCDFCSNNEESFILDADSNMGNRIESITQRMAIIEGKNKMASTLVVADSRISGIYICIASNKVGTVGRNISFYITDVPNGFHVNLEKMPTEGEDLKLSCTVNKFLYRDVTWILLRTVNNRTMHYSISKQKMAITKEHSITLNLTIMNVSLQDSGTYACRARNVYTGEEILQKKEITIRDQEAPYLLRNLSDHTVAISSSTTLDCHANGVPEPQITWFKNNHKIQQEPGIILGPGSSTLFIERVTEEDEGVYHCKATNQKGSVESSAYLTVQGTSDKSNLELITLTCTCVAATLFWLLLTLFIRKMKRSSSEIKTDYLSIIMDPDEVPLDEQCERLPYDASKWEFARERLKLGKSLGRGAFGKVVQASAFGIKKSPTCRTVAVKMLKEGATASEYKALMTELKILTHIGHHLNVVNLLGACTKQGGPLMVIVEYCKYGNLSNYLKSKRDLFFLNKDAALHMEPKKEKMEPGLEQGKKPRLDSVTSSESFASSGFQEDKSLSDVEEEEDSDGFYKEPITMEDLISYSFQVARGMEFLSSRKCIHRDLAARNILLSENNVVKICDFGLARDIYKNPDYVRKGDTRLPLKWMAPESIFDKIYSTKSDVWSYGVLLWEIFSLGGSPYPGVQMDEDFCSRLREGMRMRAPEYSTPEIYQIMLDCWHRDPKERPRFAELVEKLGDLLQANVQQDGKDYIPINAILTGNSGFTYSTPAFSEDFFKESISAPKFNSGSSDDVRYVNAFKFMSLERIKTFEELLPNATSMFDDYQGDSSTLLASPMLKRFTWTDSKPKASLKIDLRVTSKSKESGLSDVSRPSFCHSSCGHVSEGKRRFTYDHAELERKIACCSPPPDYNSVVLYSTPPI
Kind of test: Kinase inhibition assay (33P transfer), Flt-1. The procedure, abridged:
as §1

The target in a further test is T4, Zap-70 (Homo sapiens, UniProt P43403).
T4 construct: Kinases are expressed as either kinase domains or full length constructs; made in house
T4 sequence (P43403 1-619): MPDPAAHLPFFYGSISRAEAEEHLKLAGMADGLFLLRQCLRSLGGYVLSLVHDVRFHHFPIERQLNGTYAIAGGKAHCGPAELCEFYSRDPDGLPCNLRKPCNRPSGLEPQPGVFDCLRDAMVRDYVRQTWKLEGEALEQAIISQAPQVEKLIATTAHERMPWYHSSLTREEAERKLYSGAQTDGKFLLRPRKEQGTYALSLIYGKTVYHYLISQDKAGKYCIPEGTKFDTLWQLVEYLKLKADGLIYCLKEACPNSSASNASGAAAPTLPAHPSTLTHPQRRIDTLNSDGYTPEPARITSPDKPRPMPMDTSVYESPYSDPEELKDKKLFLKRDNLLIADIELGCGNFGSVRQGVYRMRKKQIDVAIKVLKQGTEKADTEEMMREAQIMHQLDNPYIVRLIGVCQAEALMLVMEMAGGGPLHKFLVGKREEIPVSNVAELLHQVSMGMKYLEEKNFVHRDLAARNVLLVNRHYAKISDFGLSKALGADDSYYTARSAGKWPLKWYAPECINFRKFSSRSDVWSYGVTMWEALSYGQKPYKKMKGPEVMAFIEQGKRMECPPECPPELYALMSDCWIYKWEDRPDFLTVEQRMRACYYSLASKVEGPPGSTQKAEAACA
In words: Kinase inhibition assay (33P transfer), Zap-70. To be noted: Table 3; for IC50: read-out: Zap-1. The method, boiled down:
(§2)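 Recombinant kinase-domain or full-length fusion proteins (GST or His tag) served as enzyme. Substrate poly(Glu,Tyr) 4:1 or poly(Arg,Ser) 3:1 was bound to the plate; transferred 33P was read by liquid scintillation following acid washing.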

Another test deals with T5, AKT (Homo sapiens, UniProt Q9Y243).
T5 construct: Kinases are expressed as either kinase domains or full length constructs; made in house
T5 sequence (Q9Y243 whole entry, the tested form may be a part): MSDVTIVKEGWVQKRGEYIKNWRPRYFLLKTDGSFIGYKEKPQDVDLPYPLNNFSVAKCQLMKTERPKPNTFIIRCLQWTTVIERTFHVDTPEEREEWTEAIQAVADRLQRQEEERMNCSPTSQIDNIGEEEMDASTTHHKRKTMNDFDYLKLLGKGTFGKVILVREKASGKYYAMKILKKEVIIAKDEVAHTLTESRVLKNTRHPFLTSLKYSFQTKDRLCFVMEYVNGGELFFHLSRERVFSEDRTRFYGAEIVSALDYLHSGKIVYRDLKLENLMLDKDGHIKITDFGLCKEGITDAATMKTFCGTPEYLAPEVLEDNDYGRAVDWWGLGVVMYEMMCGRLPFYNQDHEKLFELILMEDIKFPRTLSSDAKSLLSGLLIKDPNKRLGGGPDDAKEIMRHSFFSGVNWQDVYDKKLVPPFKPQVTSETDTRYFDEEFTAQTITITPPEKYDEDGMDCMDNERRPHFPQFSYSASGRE
Kind of test: Kinase inhibition assay (33P transfer), AKT. The note with it: Table 2, kinase inhibition class; for IC50: read-out: AKT3-1. The method, boiled down:
as §2

The next test has as its target T6, EPHB4 (Homo sapiens, UniProt P54760).
T6 construct: Kinases are expressed as either kinase domains or full length constructs; made in house
T6 sequence (P54760 16-987): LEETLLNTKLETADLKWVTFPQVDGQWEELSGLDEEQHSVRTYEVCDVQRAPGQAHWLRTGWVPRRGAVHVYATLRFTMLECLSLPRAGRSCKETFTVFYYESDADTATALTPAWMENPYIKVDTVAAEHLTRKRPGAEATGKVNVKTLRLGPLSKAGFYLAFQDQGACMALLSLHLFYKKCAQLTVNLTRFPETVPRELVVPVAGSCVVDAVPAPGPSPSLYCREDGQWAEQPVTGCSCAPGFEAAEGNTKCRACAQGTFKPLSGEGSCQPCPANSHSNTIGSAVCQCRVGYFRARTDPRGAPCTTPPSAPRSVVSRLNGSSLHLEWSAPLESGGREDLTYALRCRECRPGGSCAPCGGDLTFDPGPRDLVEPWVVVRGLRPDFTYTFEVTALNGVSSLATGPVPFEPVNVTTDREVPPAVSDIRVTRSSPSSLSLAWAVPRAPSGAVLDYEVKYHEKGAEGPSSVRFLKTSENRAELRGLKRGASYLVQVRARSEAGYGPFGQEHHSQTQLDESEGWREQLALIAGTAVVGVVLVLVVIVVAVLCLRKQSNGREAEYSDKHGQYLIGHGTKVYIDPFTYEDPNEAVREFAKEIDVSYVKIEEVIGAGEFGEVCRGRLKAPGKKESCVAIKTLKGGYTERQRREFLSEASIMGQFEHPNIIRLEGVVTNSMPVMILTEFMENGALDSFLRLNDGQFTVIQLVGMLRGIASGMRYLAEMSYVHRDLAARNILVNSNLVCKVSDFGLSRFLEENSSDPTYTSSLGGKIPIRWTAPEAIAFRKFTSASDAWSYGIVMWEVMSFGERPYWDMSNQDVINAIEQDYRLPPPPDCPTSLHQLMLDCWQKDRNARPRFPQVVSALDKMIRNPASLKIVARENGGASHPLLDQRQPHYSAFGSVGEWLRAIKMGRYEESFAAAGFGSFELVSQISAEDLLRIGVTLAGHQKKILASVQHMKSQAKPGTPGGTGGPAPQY
Kind of test: Kinase inhibition assay (33P transfer), EPHB4. To be noted: for IC50: read-out: EPHB4-1.

A further test concerns the target T7, ErbB2 (Homo sapiens, UniProt P04626).
T7 construct: Kinases are expressed as either kinase domains or full length constructs; made in house
In words: Kinase inhibition assay (33P transfer), ErbB2. The note with it: read-out: ErbB2-2. The procedure, abridged:
as §1

T1 sequence (P08631 whole entry, the tested form may be a part): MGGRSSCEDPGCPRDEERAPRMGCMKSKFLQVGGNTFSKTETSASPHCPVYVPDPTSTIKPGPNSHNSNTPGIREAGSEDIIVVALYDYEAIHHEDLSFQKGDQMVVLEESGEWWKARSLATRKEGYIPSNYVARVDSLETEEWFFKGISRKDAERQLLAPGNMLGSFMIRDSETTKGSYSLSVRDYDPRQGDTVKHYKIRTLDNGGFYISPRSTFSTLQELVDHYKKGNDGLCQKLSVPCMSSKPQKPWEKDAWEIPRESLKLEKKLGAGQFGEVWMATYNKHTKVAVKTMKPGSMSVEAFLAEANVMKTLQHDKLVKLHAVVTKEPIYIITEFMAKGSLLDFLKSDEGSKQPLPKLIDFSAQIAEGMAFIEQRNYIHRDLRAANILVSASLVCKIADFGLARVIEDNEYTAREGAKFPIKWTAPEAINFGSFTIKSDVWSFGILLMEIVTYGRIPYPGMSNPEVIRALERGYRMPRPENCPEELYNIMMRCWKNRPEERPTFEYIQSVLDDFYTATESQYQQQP
T7 sequence (P04626 23-1255, species assumed): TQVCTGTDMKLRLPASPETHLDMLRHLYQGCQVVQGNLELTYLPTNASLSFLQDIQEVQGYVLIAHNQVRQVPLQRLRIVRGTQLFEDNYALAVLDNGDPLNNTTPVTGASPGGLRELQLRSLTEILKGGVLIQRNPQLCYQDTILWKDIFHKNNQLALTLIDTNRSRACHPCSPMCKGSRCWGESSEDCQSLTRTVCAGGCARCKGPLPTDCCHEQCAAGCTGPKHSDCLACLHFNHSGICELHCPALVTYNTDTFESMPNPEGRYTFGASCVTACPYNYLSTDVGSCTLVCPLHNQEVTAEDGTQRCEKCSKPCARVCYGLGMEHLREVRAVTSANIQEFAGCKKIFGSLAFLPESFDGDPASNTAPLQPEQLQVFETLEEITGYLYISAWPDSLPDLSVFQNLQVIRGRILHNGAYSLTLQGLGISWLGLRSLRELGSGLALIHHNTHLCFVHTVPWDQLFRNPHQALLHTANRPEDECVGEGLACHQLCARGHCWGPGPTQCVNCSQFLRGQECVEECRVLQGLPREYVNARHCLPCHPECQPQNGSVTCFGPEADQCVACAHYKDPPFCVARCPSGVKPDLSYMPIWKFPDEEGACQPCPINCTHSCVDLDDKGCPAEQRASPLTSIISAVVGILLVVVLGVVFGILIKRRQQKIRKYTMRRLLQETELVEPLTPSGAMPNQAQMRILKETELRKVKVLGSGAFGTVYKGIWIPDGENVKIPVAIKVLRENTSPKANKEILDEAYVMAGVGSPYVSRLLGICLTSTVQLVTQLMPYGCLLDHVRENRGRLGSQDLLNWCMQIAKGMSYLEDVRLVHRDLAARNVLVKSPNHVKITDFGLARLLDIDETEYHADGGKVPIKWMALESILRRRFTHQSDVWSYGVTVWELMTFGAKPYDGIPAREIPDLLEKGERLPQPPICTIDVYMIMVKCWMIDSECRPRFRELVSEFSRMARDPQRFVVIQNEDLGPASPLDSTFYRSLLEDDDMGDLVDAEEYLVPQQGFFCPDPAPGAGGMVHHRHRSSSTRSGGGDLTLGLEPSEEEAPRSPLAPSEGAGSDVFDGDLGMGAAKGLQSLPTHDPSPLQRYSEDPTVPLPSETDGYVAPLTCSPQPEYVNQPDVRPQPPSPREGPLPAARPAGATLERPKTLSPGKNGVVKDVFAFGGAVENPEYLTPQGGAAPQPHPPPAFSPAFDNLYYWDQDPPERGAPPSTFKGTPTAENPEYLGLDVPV

Regarding `COc1cc(Nc2ncnc(Nc3ccc(C)c(N)c3)n2)cc(OC)c1OC` [Compound 935], the IC50 was 6.28 to 9.15 µM on Hck-1; below 1.05 µM at Fyn; 1.05 to 6.28 µM against Flt-1; above 11.8 µM at Zap-70; above 11.8 µM at AKT; 1.05 to 6.28 µM at EPHB4.
Consider `COc1cc(Nc2ncnc(-n3c(=O)[nH]c4ccccc43)n2)cc(OC)c1OC` [Compound 325], for which the IC50 on Hck-1 was above 11.4 µM; on Fyn it was 6.09 to 8.87 µM; on Flt-1, below 1.01 µM; at Zap-70, above 11.4 µM; on AKT it was above 11.4 µM; at EPHB4 it was above 11.4 µM.
Turning to `CCOc1ccc(Nc2ncnc(Nc3ccc(C)c(O)c3)n2)cc1OCC` [Compound 121], the IC50 is above 11.8 µM at Hck-1; below 1.05 µM at Fyn; below 1.05 µM against Flt-1; above 11.8 µM at Zap-70; above 11.8 µM at AKT; above 11.8 µM on EPHB4.
Consider `COc1ccc(N(C)c2ncnc(Nc3cc(OC)c(OC)c(OC)c3)n2)cc1` [Compound 106], for which the IC50 against Flt-1 is below 1.01 µM; on Zap-70, above 11.3 µM; at AKT, above 11.3 µM; at EPHB4, 1.01 to 6.04 µM.
As for `COc1ccc(Nc2ncnc(Nc3cc(OC)c(OC)c(OC)c3)n2)cc1OC` [Compound 36], the IC50 is above 10.9 µM against Hck-1; above 10.9 µM on Fyn; below 0.968 µM against Flt-1; above 10.9 µM on Zap-70; above 10.9 µM at AKT; 8.47 to 10.9 µM on EPHB4.
`c1coc(-c2cc(Nc3ncnc(Nc4ccc(N5CCOCC5)cc4)n3)[nH]n2)c1` [Compound 340]: the IC50 at Hck-1 was above 11.1 µM; on Fyn it was 0.989 to 5.93 µM; against Flt-1, below 0.989 µM; on Zap-70, above 11.1 µM; on AKT, 5.93 to 8.65 µM; at EPHB4, 0.989 to 5.93 µM.
For `COc1ccc(Nc2ncnc(Nc3ccc4[nH]ccc4c3)n2)cc1OC` [Compound 115], the IC50 at Hck-1 was above 12.4 µM; on Fyn it was 6.62 to 9.66 µM; against Flt-1, 1.1 to 6.62 µM; on Zap-70 it was above 12.4 µM; at AKT it was 1.1 to 6.62 µM; at EPHB4, 9.66 to 12.4 µM.
For `COc1cc(Nc2ncnc(N3CCc4cc([N+](=O)[O-])ccc43)n2)cc(OC)c1OC` [Compound 187], the IC50 against Hck-1, at Fyn, on Flt-1, on Zap-70, on AKT and at EPHB4 was above 10.6 µM each time.
For `COc1cc(Nc2ncnc(Nc3cc(OC)c(OC)c(OC)c3)n2)cc(OC)n1` [Compound 253], the IC50 against Hck-1, at Fyn, at Zap-70, on AKT and on EPHB4 was above 10.9 µM each time.
Consider `CCOc1ccc(Nc2ncnc(Nc3ccc(OCc4ccccc4)cc3)n2)cc1OCC` [Compound 170], for which the IC50 against Hck-1 was above 9.84 µM; at Fyn it was above 9.84 µM; on Flt-1 it was above 9.84 µM; on Zap-70 it was 5.25 to 7.65 µM; at AKT, 0.874 to 5.25 µM; at EPHB4 it was 5.25 to 7.65 µM.
In the case of `COc1ccc(Nc2ncnc(Nc3cccc(C)c3)n2)cc1OC` [Compound 108], the IC50 against Hck-1 was above 13.3 µM; on Fyn, 1.19 to 7.11 µM; against Flt-1, above 13.3 µM; at Zap-70, above 13.3 µM; on AKT, above 13.3 µM; on EPHB4 it was above 13.3 µM.
For the compound `COc1ccc(Nc2ncnc(Nc3ccc(Oc4ccccc4)cc3)n2)cc1OC` [Compound 929], the IC50 was above 10.8 µM against Flt-1, 5.78 to 8.42 µM at Zap-70, above 10.8 µM on AKT and above 10.8 µM on EPHB4.
Consider `COCCOc1ccc(Nc2ncnc(Nc3ccc(C)c(O)c3)n2)cc1OCCOC` [Compound 125], for which the IC50 was 7.93 to 10.2 µM against Hck-1; 0.906 to 5.44 µM on Fyn; below 0.906 µM against Flt-1; above 10.2 µM on Zap-70; above 10.2 µM at AKT; above 10.2 µM on EPHB4.
Take `COCCOc1ccc(Nc2ncnc(-n3c(N)nc4ccccc43)n2)cc1OCCOC` [Compound 302]: the IC50 against Hck-1, at Fyn, at Flt-1, at Zap-70, on AKT and on EPHB4 was above 9.97 µM in each case.
Turning to `COc1cc(Nc2ncnc(Nc3ccc(Br)c(Cl)c3)n2)cc(OC)c1OC` [Compound 936], the IC50 on Hck-1 was 5.14 to 7.5 µM; at Fyn, below 0.857 µM; at Flt-1, 0.857 to 5.14 µM; at Zap-70, above 9.64 µM; at AKT, above 9.64 µM; at EPHB4, below 0.857 µM.
`COc1cc(Nc2ncnc(-n3c(N)nc4ccccc43)n2)ccc1OCCn1ccnn1` [Compound 324]: the IC50 was above 10.1 µM at Hck-1; above 10.1 µM at Fyn; below 0.9 µM on Flt-1; above 10.1 µM on Zap-70; above 10.1 µM at AKT; above 10.1 µM on EPHB4.
Turning to `COc1cc(Nc2ncnc(-n3ccc4c(OC)cccc43)n2)cc(OC)c1OC` [Compound 238], the IC50 against Hck-1, at Fyn, at Flt-1, on Zap-70, on AKT and on EPHB4 was above 11 µM each time.
Take `COCCOc1cc(Nc2ncnc(Nc3ccc(C)c(O)c3)n2)ccc1OC` [Compound 127]: the IC50 at Hck-1 was 1.01 to 6.04 µM; on Fyn it was below 1.01 µM; against Flt-1, below 1.01 µM; at Zap-70, above 11.3 µM; on AKT, above 11.3 µM; at EPHB4 it was 8.81 to 11.3 µM.
`COc1ccc(Nc2ncnc(Nc3ccc(N(C)C)cc3)n2)cc1OC` [Compound 114]: the IC50 against Flt-1, at Zap-70, on AKT and on EPHB4 was above 12.3 µM each time.
Take `Cc1cccc(Nc2ncnc(Nc3cccc(Br)c3)n2)c1` [Compound 109]: the IC50 at ErbB2 was 6.74 to 9.83 µM; on Zap-70, 6.74 to 9.83 µM; at AKT, above 12.6 µM; at EPHB4 it was above 12.6 µM.
`COc1ccc(Nc2ncnc(Nc3cc(OC)c(OC)c(OC)c3)n2)cn1` [Compound 28]: at Hck-1, the Hck-1 result is listed as “E (E>4.5 ug/mL)”. Further, the Fyn-1 entry on Fyn was “B (B>0.4 and <2.4 ug/mL)”. The Zap-1 result on Zap-70 is given as “E (E>4.5 ug/mL)”. Moreover, at AKT, the AKT3-1 result is given as “E (E>4.5 ug/mL)”. Besides, at EPHB4, the EPHB4-1 result was “B (B>0.4 and <2.4 ug/mL)”.
On to `COc1cc(Nc2ncnc(N3CCCCC3)n2)cc(OC)c1OC` [Compound 207], for which the IC50 against Flt-1 was 1.16 to 6.95 µM; on Zap-70, above 13 µM; on AKT, above 13 µM; at EPHB4, above 13 µM.
